{"source": "paper PMC10762035", "about": "“Molecular basis of human trace amine-associated receptor 1 activation” (Nature Communications, 2024)", "key": {"hTA1 T194A": {"target": "T1, hTA1 T194A (Homo sapiens, UniProt Q96RJ0, T194A)", "T1 sequence (Q96RJ0 1-339 T194A)": "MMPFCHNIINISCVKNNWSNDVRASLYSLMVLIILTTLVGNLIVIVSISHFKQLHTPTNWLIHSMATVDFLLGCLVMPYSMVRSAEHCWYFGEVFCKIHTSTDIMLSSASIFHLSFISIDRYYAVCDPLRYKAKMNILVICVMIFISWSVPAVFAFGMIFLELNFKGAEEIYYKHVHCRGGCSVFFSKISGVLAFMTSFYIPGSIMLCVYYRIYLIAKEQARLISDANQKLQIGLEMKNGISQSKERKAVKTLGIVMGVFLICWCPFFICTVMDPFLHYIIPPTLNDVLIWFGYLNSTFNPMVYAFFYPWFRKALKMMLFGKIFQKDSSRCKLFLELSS", "assay": "GloSensor cAMP accumulation assay, T194A mutant", "settings": "for cAMP accumulation response, individual replicate values of the concentration-response curve: hTA1 T194A, log[Agonist], Supplementary Figure 5 source data"}, "hTA1": {"target": "T2, hTA1 (Homo sapiens, UniProt Q96RJ0)", "T2 construct": "expressed in transfected cells; host or cells: HEK293T", "T2 sequence (Q96RJ0 1-339)": "T1 sequence (Q96RJ0 1-339 T194A) with A194T", "assay": "GloSensor cAMP accumulation assay, concentration response, wild-type hTA1 in transfected HEK293T cells;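 further: luminescence read after 30 min compound exposure at room temperature in cells preloaded with D-Luciferin, reflecting Gs-driven cAMP rise, efficacy scaled to the maximal β-PEA response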", "type": "cell-based", "settings": "for Dose-response curves for asenapine vs endogenous trace amines: log[Compound], replicate values (N=2)"}, "hTA1 I290N": {"target": "T3, hTA1 I290N (Homo sapiens, UniProt Q96RJ0, I290N)", "T3 construct": "expressed in transfected cells; host or cells: HEK293T", "T3 sequence (Q96RJ0 1-339 I290N)": "T1 sequence (Q96RJ0 1-339 T194A) with A194T, I290N", "assay": "GloSensor cAMP accumulation assay, I290N mutant;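 further: cells transiently co-expressing hTA1 and the GloSensor cAMP biosensor, luminescence read 30 min after compound addition at room temperature, efficacy scaled to the maximal β-PEA response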", "type": "cell-based"}, "[1]": {"settings": "hTA1 I290N mutant minus WT average"}}, "note": "Residue numbers refer to the chain shown, from its start. “And” between values parts separate entries of the source, which are not always exact repeats. Identical values can stand only once."}
{"compound": "NCCc1ccccc1", "note": "[β-PEA, β-phenethylamine]", "values": [{"measurement": "cAMP accumulation response, individual replicate values of the concentration-response curve", "setting": "hTA1 T194A; M = -11.522", "result": "0.4651 and -1.018 and -1.153 and -0.5123 and -0.7099 (2×) and -0.4382 and -1.015 and -0.6602"}, {"measurement": "cAMP accumulation response, individual replicate values of the concentration-response curve", "setting": "hTA1 T194A; M = -12", "result": "-0.07421 (2×) and -1.962 and -1.698 and -1.105 and -0.1274 and -0.6602 and -0.1718"}, {"measurement": "cAMP accumulation response, individual replicate values of the concentration-response curve", "setting": "hTA1 T194A; M = -12.522", "result": "0.0606 and 1.004 and 0.8695 and -0.9074 and -0.7099 and -0.3148 and -0.1718 and -0.305 and 0.1834"}, {"measurement": "ΔEmax values (each mutant value - WT average)", "setting": "hTA1 T194A; minus WT average", "result": 0}, {"measurement": "Emax values, Avg", "setting": "hTA1; WT hTA1, Figure 5B, β-PEA = 100, average of the independent experiments", "result": 100}, {"measurement": "Emax values, Mean", "setting": "hTA1; WT hTA1, Figure 5B, β-PEA = 100, each row one independent experiment (3 replicates)", "result": 100}, {"measurement": "pEC50 values, Avg", "setting": "hTA1; WT hTA1, average of the two experiments, Figure 2B source data", "result": 7.094}, {"measurement": "pEC50 values, Mean", "setting": "hTA1; WT hTA1, each line an independent experiment, 3 replicates, Figure 2B source data", "result": "7.155 and 7.032"}, {"measurement": "Emax values, Avg", "setting": "hTA1; WT hTA1, β-PEA = 100, average of the two experiments", "result": 100}, {"measurement": "Emax values, Mean", "setting": "hTA1; WT hTA1, β-PEA = 100, each line an independent experiment, 3 replicates", "result": 100}, {"measurement": "Emax values, Avg", "setting": "hTA1; WT, Avg of the two experiments, β-PEA = 100", "result": 100}, {"measurement": "Emax values, Avg", "setting": "hTA1; WT, average of the experiments, β-PEA = 100", "result": 100}, {"measurement": "Emax values, Avg", "setting": "hTA1; WT, average of the two experiments", "result": 100}, {"measurement": "Emax values, Mean", "setting": "hTA1; WT, mean of each independent experiment (3 replicates), β-PEA = 100", "result": 100}, {"measurement": "Emax values, Mean", "setting": "hTA1; WT, mean of one experiment (3 replicates), β-PEA = 100", "result": 100}, {"measurement": "Emax values, Mean", "setting": "hTA1; WT, single experiments (3 replicates each), β-PEA = 100", "result": 100}, {"measurement": "Dose-response curves for asenapine vs endogenous trace amines", "setting": "hTA1; M = -5", "result": "114.55 and 104.58 and 118.623 and 102.53 and 95.7683 and 107.085"}, {"measurement": "Dose-response curves for asenapine vs endogenous trace amines", "setting": "hTA1; M = -5.522", "result": "96.3904 and 87.8446 and 97.5922 and 98.0692 and 90.9789 and 92.0588"}, {"measurement": "Dose-response curves for asenapine vs endogenous trace amines", "setting": "hTA1; M = -6", "result": "88.2006 and 75.1148 and 94.0536 and 103.14 and 88.8658 and 89.805"}, {"measurement": "Dose-response curves for asenapine vs endogenous trace amines", "setting": "hTA1; M = -6.522", "result": "73.7573 and 64.299 and 91.1383 and 74.7791 and 68.7219 and 73.7461"}, {"measurement": "Dose-response curves for asenapine vs endogenous trace amines", "setting": "hTA1; M = -7", "result": "70.4636 and 45.5827 and 61.4726 and 66.5619 and 44.258 and 53.6961"}, {"measurement": "Dose-response curves for asenapine vs endogenous trace amines", "setting": "hTA1; M = -7.522", "result": "36.1467 and 21.3027 and 35.9464 and 26.7905 and 17.9158 and 22.3766"}, {"measurement": "Dose-response curves for asenapine vs endogenous trace amines", "setting": "hTA1; M = -8", "result": "22.727 and 16.7405 and 21.3472 and 13.3611 and 11.9525 and 11.6238"}, {"measurement": "Dose-response curves for asenapine vs endogenous trace amines", "setting": "hTA1; M = -8.522", "result": "4.5 and 4.523 and 5.969 and 4.393 and 2.514 and 2.6083"}, {"measurement": "Dose-response curves for asenapine vs endogenous trace amines", "setting": "hTA1; M = -9", "result": "1.986 and 1.318 and 1.8743 and 1.716 and 1.012 and 1.106"}, {"measurement": "Dose-response curves for asenapine vs endogenous trace amines", "setting": "hTA1; M = -9.522", "result": "-1.063 and -1.33 and -0.4402 and -0.06817 and 0.1666 and -0.4908"}, {"measurement": "Dose-response curves for asenapine vs endogenous trace amines", "setting": "hTA1; M = -10", "result": "-0.596 and -1.264 and -0.5515 and -0.4438 and -0.7725 and -0.6786"}, {"measurement": "Dose-response curves for asenapine vs endogenous trace amines", "setting": "hTA1; M = -10.522", "result": "-1.3749 and -1.931 and -0.6405 and 0.0727 and -0.5847 and -1.101"}, {"measurement": "Dose-response curves for asenapine vs endogenous trace amines", "setting": "hTA1; M = -11", "result": "-0.1286 and -1.241 and 0.2497 and 0.6362 and -0.3499 and -0.7725"}, {"measurement": "Dose-response curves for asenapine vs endogenous trace amines", "setting": "hTA1; M = -11.522", "result": "-0.01735 and -1.575 and -0.7963 and 0.5892 and -0.3969 and -0.256"}, {"measurement": "Dose-response curves for asenapine vs endogenous trace amines", "setting": "hTA1; M = -12", "result": "-1.353 and -1.3749 and -1.286 and 0.02574 and -0.4908 and -0.3029"}, {"measurement": "Dose-response curves for asenapine vs endogenous trace amines", "setting": "hTA1; M = -12.522", "result": "-1.152 and -1.664 and -0.9075 and 0.5892 (2×) and 0.4483"}, {"measurement": "Span ± SEM (Emax normalized to β-PEA)", "setting": "hTA1; wt hTA1, HEK293T, n=3", "result": "100 ± 2.26"}, {"measurement": "pEC50 ± SEM", "setting": "hTA1; wt hTA1, HEK293T, n=3", "result": "7.09 ± 0.05"}, {"measurement": "EC50", "setting": "hTA1; wt hTA1, HEK293T, n=3, read-out: EC50", "result": 80.6, "unit": "nM"}, {"measurement": "Emax", "setting": "hTA1; wt hTA1, relative to β-PEA", "result": 100.0, "unit": "%"}, {"measurement": "Span ± SEM (Emax normalized to β-PEA)", "setting": "hTA1 I290N; I290N, n=2", "result": "100 ± 2.5"}, {"measurement": "pEC50 ± SEM", "setting": "hTA1 I290N; I290N, n=2", "result": "7.26 ± 0.06"}, {"measurement": "EC50", "setting": "hTA1 I290N; I290N, n=2, read-out: EC50", "result": 54.7, "unit": "nM"}, {"measurement": "cAMP accumulation response, single replicate values (source data, Supplementary Figure 5)", "setting": "hTA1 I290N; hTA1 I290N (N=2), log[Compound], M = -5", "result": "123.698 and 115.527 and 100.651 and 114.899"}, {"measurement": "ΔEmax values (each mutant value - WT average), Mean", "setting": "hTA1 I290N; [1]", "result": 0}, {"measurement": "ΔpEC50 values (each mutant value - WT average), Mean", "setting": "hTA1 I290N; [1]", "result": "0.1524 and 0.1839"}, {"measurement": "pEC50 values, Mean", "setting": "hTA1 I290N; hTA1 I290N mutant, Figure 3B source data, each grid row a separate experiment, 3 replicates", "result": "7.2459 and 7.277"}, {"measurement": "Emax values, Mean", "setting": "hTA1 I290N; hTA1 I290N mutant, β-PEA set to 100, each grid row a separate experiment, 3 replicates", "result": 100}]}
